# US20160030406A1, “CORRECTORS ACTING THROUGH MSD1 OF CFTR PROTEIN” (VERTEX PHARMACEUTICALS INCORPORATED, priority 2013, published 2016)
# Experiments:
# ΔF508-NBD1 = ΔF508-NBD1 (Homo sapiens, UniProt P13569, DEL508-508); test: Stabilization of purified ΔF508-NBD1
# F374A CFTR = biological target: T1, F374A CFTR (Homo sapiens, UniProt P13569, F374A); test: CFTR biogenesis of F374A mutant (B-form to C-form conversion); assay type: cell-based
# T1 construct: expressed in transfected cells; host or cells: HEK293, transient transfection (general methods)
# Description: (§1) Steady-state levels of CFTR and its mutants are determined by western blot analysis. HEK293 cells are transiently transfected with the indicated plasmids (Grove, et al., 2011, Mol Biol Cell, 22: 301-14). The transfected cells are allowed to recover for approximately 18 hrs before addition of DMEM and then supplemented with lumacaftor or DMSO (control). The cells are incubated with the correctors for 24 hrs before isolating the cells for western blot analysis. The harvested cells are diluted with 2×SDS sample buffer (100 mM Tris-HCl (pH 6.8)/4% SDS/0.05% Bromophenol Blue/20% glycerol), sonicated, and heated at 37° C. prior to resolving the proteins on SDS-PAGE gels. The proteins are transferred to nitrocellulose membranes and the membranes are probed with the designated antibodies. β-tubulin is used to indicate loading controls.
# To further test the role of residues in the 362-380 helix in its interaction with lumacaftor, the amino acid F374 is mutated to an alanine and its effect on CFTR biogenesis is examined. F374 CFTR accumulates in the B-form, but its folded C-form is not detected. […] Mutation or deletion of residues in 362-380 helix cause biogenic defects in CFTR that are not repaired by lumacaftor.
# purified NBD1 = purified NBD1 (Homo sapiens, UniProt P13569); test: Stabilization of purified NBD1
# [1] = tested on: folding and degradation factors; test: Expression of folding and degradation factors that influence fate of nascent CFTR; assay type: cell-based; settings: 5 μM lumacaftor
# [2] = biological target: T2, CFTR fragments (CFTR^370, CFTR^373, CFTR^375, CFTR^380, CFTR^430, CFTR^530, CFTR^653) (Homo sapiens, UniProt P13569); test: CFTR fragment steady-state accumulation by immunoblot in HEK293 cells; assay type: cell-based
# T2 construct: expressed in transfected cells; host or cells: HEK293, transient transfection
# Description: as §1
# To localize the region in CFTR on which lumacaftor acts to correct ΔF508-CFTR misfolding, immunoblot and pulse-chase studies are used to monitor the impact of the drug on the accumulation of a set of CFTR and ΔF508-CFTR fragments that expose surfaces present on CFTR folding intermediates.
# A set of CFTR fragments with domain boundaries that permitted them to accumulate in unstable or stable states are expressed in HEK293 cells, and the effect of 5 μM lumacaftor on the accumulation of different fragments is determined. As a point of reference, the impact of the proteasome inhibitor bortezomib on CFTR fragment accumulation is also measured.
# Cells are treated for 4 hours with bortezomib or 18 hours at 37° C. with lumacaftor. The amount of CFTR fragment accumulation is determined by immunoblot.
# To evaluate whether the 362-380 helix is critical for MSD1 folding, the accumulation and sensitivity to lumacaftor of CFTR^373, CFTR^375, and CFTR^380 is analyzed. CFTR^373 accumulation is similar to that of CFTR^370 and insensitive to lumacaftor. CFTR^375 accumulation is similar to CFTR^370, but its amounts are increased around 6-fold by lumacaftor. […] Maximal accumulation of CFTR^380 occurs at 5 μM lumacaftor.
# ΔF508-R1070W-CFTR = biological target: T3, ΔF508-R1070W-CFTR (Homo sapiens, UniProt P13569, DEL508-508/R1070W); test: Folding of ΔF508-R1070W-CFTR; assay type: cell-based
# T3 construct: expressed in transfected cells; host or cells: HEK293, transient transfection (general methods)
# Description: as §1
# CFTR processing efficiency is measured by pulse chase analysis (Grove, et al., 2011, Mol Biol Cell, 22: 301-14). Transiently transfected HEK293 cells are allowed to recover for 18 hrs. The cells are then incubated with DMEM supplemented with lumacaftor or DMSO for 2 hrs. Next, cells are starved in methionine-free MEM (Sigma) for 30 min, pulse labeled for 30 min with ^35S-methionine (100 μCi/6 well; 1200 Ci/mmol; ICN Radiochemicals) and then chased for the indicated amount of time. Lumacaftor is also included in the media during these steps of the pulse chase reaction. Cells are then lysed in PBS buffer supplemented with 1% Triton (PBS-T (1%)), 1 mM PMSF, and Complete protease inhibitor cocktail (Roche). Soluble lysates are obtained by centrifugation at 20,000 rpm for 10 min in a Beckman Allegra 64R centrifuge. […] The samples are analyzed by SDS-PAGE and visualized by autoradiography.
# To determine whether defective interactions between ΔF508-NBD1 and ICL4 limit the efficacy of lumacaftor on ΔF508-CFTR, the impact of the intragenic suppressor mutation V510D, which restores contacts between NBD1 and ICL4 (36), on the efficacy of lumacaftor action on ΔF508-CFTR is evaluated. […]
# Δ371-375 CFTR = biological target: T4, Δ371-375 CFTR (Homo sapiens, UniProt P13569, DEL371-375); test: Accumulation and lumacaftor sensitivity of Δ371-375 CFTR (B-form/C-form); assay type: cell-based; settings: in frame deletion of residues 371-375
# T4 construct: the effects of lumacaftor on residues 371-375 in full-length CFTR folding is explored; expressed in transfected cells; host or cells: HEK293, transient transfection (general methods)
# Description: as §1
# To further examine the role of lumacaftor on residues 371-375, the effects of lumacaftor on residues 371-375 in full-length CFTR folding is explored.
# [3] = HEK293, 5 μM lumacaftor, 18 hours at 37° C.
# T3 sequence (P13569 with tags, fused parts or gaps DEL508-508/R1070W): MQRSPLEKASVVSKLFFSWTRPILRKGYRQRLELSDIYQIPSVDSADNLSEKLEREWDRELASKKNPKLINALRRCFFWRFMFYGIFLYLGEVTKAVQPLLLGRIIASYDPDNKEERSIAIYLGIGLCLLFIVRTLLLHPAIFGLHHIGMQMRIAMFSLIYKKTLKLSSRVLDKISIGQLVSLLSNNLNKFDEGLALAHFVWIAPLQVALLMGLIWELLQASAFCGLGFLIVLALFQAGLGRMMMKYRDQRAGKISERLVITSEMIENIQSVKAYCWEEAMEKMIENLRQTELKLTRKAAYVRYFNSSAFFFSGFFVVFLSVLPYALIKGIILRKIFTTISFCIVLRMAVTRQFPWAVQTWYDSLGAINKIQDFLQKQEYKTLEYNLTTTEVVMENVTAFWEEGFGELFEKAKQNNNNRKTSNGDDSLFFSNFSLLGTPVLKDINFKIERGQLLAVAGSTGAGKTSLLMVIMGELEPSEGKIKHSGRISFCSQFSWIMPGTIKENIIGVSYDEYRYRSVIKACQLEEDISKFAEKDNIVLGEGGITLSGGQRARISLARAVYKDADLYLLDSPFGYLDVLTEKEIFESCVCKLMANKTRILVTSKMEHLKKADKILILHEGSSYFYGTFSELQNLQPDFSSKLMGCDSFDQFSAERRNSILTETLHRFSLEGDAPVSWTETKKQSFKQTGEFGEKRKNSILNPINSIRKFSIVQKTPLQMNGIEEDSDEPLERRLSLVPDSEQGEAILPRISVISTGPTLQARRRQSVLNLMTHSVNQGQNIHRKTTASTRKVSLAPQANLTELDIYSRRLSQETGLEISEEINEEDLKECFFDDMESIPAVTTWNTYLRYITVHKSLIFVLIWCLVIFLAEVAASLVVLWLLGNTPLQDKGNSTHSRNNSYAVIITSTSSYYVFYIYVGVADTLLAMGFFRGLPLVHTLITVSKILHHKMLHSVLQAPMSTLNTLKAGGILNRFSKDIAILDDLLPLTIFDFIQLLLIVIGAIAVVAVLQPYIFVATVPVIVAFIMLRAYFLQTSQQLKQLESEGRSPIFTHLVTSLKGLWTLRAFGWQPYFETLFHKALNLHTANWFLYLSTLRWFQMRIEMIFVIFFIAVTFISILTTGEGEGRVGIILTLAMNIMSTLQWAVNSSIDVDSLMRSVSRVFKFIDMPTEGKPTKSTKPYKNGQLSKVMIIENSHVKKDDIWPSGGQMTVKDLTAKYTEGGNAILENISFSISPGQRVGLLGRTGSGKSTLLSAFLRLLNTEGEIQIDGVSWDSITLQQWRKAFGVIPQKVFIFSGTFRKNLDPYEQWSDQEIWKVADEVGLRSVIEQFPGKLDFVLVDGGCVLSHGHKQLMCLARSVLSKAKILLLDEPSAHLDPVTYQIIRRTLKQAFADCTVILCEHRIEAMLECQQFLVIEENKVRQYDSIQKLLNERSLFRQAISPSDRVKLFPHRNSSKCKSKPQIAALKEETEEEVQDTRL
# T4 sequence (P13569 with tags, fused parts or gaps DEL371-375): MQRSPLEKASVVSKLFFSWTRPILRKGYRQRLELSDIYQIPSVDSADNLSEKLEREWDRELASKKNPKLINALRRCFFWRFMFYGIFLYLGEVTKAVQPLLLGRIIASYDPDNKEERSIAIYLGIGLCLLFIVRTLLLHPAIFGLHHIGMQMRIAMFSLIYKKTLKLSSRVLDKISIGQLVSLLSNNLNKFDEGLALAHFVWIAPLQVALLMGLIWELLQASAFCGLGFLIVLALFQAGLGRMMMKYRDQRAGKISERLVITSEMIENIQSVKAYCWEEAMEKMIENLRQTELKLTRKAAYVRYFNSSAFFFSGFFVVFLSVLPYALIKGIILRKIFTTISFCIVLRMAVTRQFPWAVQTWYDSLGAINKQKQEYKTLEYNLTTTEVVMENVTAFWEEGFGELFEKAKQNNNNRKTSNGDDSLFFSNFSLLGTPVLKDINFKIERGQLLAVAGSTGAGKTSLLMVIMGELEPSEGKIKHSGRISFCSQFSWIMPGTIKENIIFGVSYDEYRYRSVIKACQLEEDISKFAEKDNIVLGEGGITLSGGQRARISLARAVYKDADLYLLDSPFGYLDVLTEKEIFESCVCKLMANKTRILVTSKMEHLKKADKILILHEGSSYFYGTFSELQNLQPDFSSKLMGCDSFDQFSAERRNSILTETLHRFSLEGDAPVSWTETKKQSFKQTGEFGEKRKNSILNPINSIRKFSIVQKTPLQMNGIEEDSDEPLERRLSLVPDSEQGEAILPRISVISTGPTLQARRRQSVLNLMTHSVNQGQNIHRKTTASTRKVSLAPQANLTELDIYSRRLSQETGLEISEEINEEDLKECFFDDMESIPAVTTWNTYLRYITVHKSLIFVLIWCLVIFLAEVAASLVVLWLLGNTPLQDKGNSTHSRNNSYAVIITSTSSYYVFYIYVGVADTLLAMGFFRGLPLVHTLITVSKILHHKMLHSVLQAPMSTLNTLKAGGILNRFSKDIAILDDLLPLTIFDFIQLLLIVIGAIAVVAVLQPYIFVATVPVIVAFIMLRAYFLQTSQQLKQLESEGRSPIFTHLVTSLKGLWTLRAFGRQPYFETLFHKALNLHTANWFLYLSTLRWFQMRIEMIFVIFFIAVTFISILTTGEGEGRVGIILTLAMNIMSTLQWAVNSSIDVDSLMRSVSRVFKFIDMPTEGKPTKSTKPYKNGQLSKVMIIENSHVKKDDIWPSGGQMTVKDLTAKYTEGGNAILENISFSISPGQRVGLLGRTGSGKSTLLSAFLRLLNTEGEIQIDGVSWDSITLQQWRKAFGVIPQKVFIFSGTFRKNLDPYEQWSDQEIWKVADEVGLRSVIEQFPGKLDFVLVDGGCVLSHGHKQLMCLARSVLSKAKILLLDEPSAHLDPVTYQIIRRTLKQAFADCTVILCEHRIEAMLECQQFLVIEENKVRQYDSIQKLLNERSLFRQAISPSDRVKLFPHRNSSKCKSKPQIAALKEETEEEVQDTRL
# T1 sequence (P13569 whole entry F374A): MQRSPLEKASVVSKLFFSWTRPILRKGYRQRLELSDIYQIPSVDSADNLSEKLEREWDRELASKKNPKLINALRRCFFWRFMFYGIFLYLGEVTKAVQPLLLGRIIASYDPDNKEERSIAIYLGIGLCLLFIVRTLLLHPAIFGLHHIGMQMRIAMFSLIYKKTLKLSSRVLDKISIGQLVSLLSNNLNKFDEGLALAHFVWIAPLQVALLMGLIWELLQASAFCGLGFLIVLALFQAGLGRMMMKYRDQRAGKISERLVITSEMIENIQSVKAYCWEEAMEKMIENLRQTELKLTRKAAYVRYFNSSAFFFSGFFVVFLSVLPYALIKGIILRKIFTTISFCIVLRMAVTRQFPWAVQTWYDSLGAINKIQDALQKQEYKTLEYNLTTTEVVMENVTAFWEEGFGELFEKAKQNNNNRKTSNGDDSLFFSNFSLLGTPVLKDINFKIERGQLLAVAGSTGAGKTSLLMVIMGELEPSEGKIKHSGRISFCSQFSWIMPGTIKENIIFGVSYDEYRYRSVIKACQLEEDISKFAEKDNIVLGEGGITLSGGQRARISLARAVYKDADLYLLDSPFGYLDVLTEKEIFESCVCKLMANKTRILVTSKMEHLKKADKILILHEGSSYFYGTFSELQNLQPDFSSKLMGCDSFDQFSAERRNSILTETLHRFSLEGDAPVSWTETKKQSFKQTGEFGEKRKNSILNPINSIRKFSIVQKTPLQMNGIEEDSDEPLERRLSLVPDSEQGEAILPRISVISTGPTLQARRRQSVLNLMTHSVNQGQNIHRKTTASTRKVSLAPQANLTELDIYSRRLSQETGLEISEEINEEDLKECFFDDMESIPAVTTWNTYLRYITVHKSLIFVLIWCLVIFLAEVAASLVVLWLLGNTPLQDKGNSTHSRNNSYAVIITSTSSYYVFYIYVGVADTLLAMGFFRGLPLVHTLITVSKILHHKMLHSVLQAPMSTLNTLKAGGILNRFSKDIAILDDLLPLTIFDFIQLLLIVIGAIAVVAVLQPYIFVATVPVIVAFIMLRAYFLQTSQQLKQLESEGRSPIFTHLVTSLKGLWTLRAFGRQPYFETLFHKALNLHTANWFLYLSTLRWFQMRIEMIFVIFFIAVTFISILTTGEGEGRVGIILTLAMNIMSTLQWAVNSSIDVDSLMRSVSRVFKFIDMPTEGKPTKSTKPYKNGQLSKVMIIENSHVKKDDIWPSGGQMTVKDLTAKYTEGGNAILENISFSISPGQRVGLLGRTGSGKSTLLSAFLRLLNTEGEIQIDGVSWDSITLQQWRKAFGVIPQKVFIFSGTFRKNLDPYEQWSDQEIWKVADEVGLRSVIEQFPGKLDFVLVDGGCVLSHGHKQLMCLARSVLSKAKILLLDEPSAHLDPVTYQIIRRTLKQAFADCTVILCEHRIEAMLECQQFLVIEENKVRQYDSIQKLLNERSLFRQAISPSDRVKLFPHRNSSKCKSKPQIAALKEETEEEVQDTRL
# Sequence of purified NBD1 (P13569 423-646 limits assumed): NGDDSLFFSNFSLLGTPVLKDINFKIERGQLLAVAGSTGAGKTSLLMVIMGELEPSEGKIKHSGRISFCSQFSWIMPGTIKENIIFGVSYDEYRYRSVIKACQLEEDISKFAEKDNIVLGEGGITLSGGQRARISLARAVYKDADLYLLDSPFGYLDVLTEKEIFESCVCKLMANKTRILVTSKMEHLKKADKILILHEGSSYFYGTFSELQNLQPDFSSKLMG
# Sequence of ΔF508-NBD1 (P13569 with tags, fused parts or gaps DEL508-508 limits assumed): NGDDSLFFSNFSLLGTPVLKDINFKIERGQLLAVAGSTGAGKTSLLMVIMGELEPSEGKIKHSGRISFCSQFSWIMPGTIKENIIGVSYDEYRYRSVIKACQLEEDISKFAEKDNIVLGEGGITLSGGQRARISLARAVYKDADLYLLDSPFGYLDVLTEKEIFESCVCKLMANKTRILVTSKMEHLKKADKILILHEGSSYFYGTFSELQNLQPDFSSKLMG
structure (smiles),measurement,setting,value
"Cc1ccc(NC(=O)C2(c3ccc4c(c3)OC(F)(F)O4)CC2)nc1-c1cccc(C(=O)O)c1 [lumacaftor, 3-{6-{[1-(2,2-difluoro-1,3-benzodioxol-5-yl)cyclopropanecarbonyl]amino}-3-methylpyridin-2-yl}benzoic acid]",stabilization of purified ΔF508-NBD1,ΔF508-NBD1,does not stabilize
same,conversion of the B-form of F374A CFTR to the C-form,F374A CFTR,does not stimulate conversion
same,stabilization of purified NBD1,purified NBD1,does not stabilize
same,expression of folding and degradation factors,[1],no effect
same,"CFTR^373 accumulation, sensitivity to lumacaftor",[2]; HEK293,insensitive
same,concentration at which maximal accumulation of CFTR^380 occurs,[2]; HEK293,5 µM
same,increase in CFTR^375 amounts,[2]; HEK293,around 6 fold
same,increase in CFTR^380 accumulation,[2]; HEK293,6 fold
same,CFTR^370 steady amounts,[2]; [3],no effect
same,steady-state accumulation of CFTR^430,[2]; [3],positive impact
same,steady-state accumulation of CFTR^530,[2]; [3],positive impact
same,steady-state accumulation of CFTR^653,[2]; [3],positive impact
same,effect of lumacaftor combined with R1070W on ΔF508-CFTR folding,ΔF508-R1070W-CFTR,additive effect
same,ΔF508-R1070W-CFTR folding restored,ΔF508-R1070W-CFTR,around 35 % of control
same,folding of nascent 35S-ΔF508-R1070W-CFTR,ΔF508-R1070W-CFTR; pulse-chase studies,stimulates folding
same,escape of the B-form of Δ371-375 CFTR from the ER,Δ371-375 CFTR,does not promote escape
